{"source": "ChEMBL document CHEMBL3407459", "about": "“Synthesis and antimicrobial activity of novel structural hybrids of benzofuroxan and benzothiazole derivatives” (2015)", "key": {"Escherichia coli [1]": {"tested_on": "Escherichia coli", "experiment": "Antibacterial activity against Escherichia coli MG1655 harboring pGrpE-lux assessed as maximum induction factor at 10^-13 M after 120 mins by luminometric analysis", "type": "functional, K-12 substr. MG1655"}, "Escherichia coli [2]": {"tested_on": "Escherichia coli", "experiment": "Antibacterial activity against Escherichia coli MG1655 harboring pGrpE-lux assessed as maximum induction factor at 10^-7 M after 120 mins by luminometric analysis", "type": "functional, K-12 substr. MG1655"}, "[3]": {"experiment": "Activation of quorum sensing system luxR in Escherichia coli MG1655 harboring pVFR1-lux assessed as maximum induction factor at 10^-7 M after 120 mins by luminometric analysis", "conditions": "Escherichia coli str. K-12 substr. MG1655"}, "Escherichia coli [4]": {"tested_on": "Escherichia coli", "experiment": "Antibacterial activity against Escherichia coli MG1655 harboring pKatG-lux assessed as maximum induction factor at 10^-4 M after 120 mins by luminometric analysis", "type": "functional, K-12 substr. MG1655"}, "Escherichia coli [5]": {"tested_on": "Escherichia coli", "experiment": "Antibacterial activity against Escherichia coli MG1655 harboring pRecA-lux assessed as maximum induction factor at 10^-13 M after 120 mins by luminometric analysis", "type": "functional, K-12 substr. MG1655"}, "Vibrio sp. [6]": {"tested_on": "Vibrio sp.", "experiment": "Antibacterial activity against Vibrio aqamarinus VKPM B-11245 assessed as toxicity index at 10^-13 M measured for 2 hrs by luminometric analysis", "type": "functional"}, "Vibrio sp. [7]": {"tested_on": "Vibrio sp.", "experiment": "Antibacterial activity against Vibrio aqamarinus VKPM B-11245 assessed as toxicity index at 10^-3 M measured for 2 hrs by luminometric analysis", "type": "functional"}, "Escherichia coli [8]": {"tested_on": "Escherichia coli", "experiment": "Antibacterial activity against Escherichia coli MG1655 harboring pXen7 assessed as toxicity index at 10^-4 M measured for 2 hrs by luminometric analysis", "type": "functional, K-12 substr. MG1655"}, "Escherichia coli [9]": {"tested_on": "Escherichia coli", "experiment": "Antibacterial activity against Escherichia coli MG1655 harboring pColD-lux assessed as maximum induction factor at 10^-10 M after 120 mins by luminometric analysis", "type": "functional, K-12 substr. MG1655"}, "Escherichia coli [10]": {"tested_on": "Escherichia coli", "experiment": "Antibacterial activity against Escherichia coli MG1655 harboring pGrpE-lux assessed as maximum induction factor at 10^-8 M after 120 mins by luminometric analysis", "type": "functional, K-12 substr. MG1655"}, "[11]": {"experiment": "Activation of quorum sensing system luxR in Escherichia coli MG1655 harboring pVFR1-lux assessed as maximum induction factor at 10^-14 M after 120 mins by luminometric analysis", "conditions": "Escherichia coli str. K-12 substr. MG1655"}, "Vibrio sp. [12]": {"tested_on": "Vibrio sp.", "experiment": "Antibacterial activity against Vibrio aqamarinus VKPM B-11245 assessed as toxicity index at 10^-10 M measured for 2 hrs by luminometric analysis", "type": "functional"}, "Escherichia coli [13]": {"tested_on": "Escherichia coli", "experiment": "Antibacterial activity against Escherichia coli MG1655 harboring pXen7 assessed as toxicity index at 10^-8 M measured for 2 hrs by luminometric analysis", "type": "functional, K-12 substr. MG1655"}, "Escherichia coli [14]": {"tested_on": "Escherichia coli", "experiment": "Antibacterial activity against Escherichia coli MG1655 harboring pSoxS-lux assessed as maximum induction factor at 10^-7 M after 120 mins by luminometric analysis", "type": "functional, K-12 substr. MG1655"}, "[15]": {"experiment": "Activation of quorum sensing system luxR in Escherichia coli MG1655 harboring pVFR1-lux assessed as maximum induction factor at 10^-5 M after 120 mins by luminometric analysis", "conditions": "Escherichia coli str. K-12 substr. MG1655"}, "Escherichia coli [16]": {"tested_on": "Escherichia coli", "experiment": "Antibacterial activity against Escherichia coli MG1655 harboring pColD-lux assessed as maximum induction factor at 10^-13 M after 120 mins by luminometric analysis", "type": "functional, K-12 substr. MG1655"}, "Escherichia coli [17]": {"tested_on": "Escherichia coli", "experiment": "Antibacterial activity against Escherichia coli MG1655 harboring pRecA-lux assessed as maximum induction factor at 10^-5 M after 120 mins by luminometric analysis", "type": "functional, K-12 substr. MG1655"}, "Escherichia coli [18]": {"tested_on": "Escherichia coli", "experiment": "Antibacterial activity against Escherichia coli MG1655 harboring pXen7 assessed as toxicity index at 10^-5 M measured for 2 hrs by luminometric analysis", "type": "functional, K-12 substr. MG1655"}, "Escherichia coli [19]": {"tested_on": "Escherichia coli", "experiment": "Antibacterial activity against Escherichia coli MG1655 harboring pRecA-lux assessed as maximum induction factor at 10^-7 M after 120 mins by luminometric analysis", "type": "functional, K-12 substr. MG1655"}, "Escherichia coli [20]": {"tested_on": "Escherichia coli", "experiment": "Antibacterial activity against Escherichia coli MG1655 harboring pColD-lux assessed as maximum induction factor at 10^-11 M after 120 mins by luminometric analysis", "type": "functional, K-12 substr. MG1655"}, "Escherichia coli [21]": {"tested_on": "Escherichia coli", "experiment": "Antibacterial activity against Escherichia coli MG1655 harboring pKatG-lux assessed as maximum induction factor at 10^-8 M after 120 mins by luminometric analysis", "type": "functional, K-12 substr. MG1655"}, "[22]": {"experiment": "Activation of quorum sensing system luxR in Escherichia coli MG1655 harboring pVFR1-lux assessed as maximum induction factor at 10^-3 M after 120 mins by luminometric analysis", "conditions": "Escherichia coli str. K-12 substr. MG1655"}, "Vibrio sp. [23]": {"tested_on": "Vibrio sp.", "experiment": "Antibacterial activity against Vibrio aqamarinus VKPM B-11245 assessed as toxicity index at 10^-9 M measured for 2 hrs by luminometric analysis", "type": "functional"}, "Escherichia coli [24]": {"tested_on": "Escherichia coli", "experiment": "Antibacterial activity against Escherichia coli MG1655 harboring pXen7 assessed as toxicity index at 10^-9 M measured for 2 hrs by luminometric analysis", "type": "functional, K-12 substr. MG1655"}, "Escherichia coli [25]": {"tested_on": "Escherichia coli", "experiment": "Antibacterial activity against Escherichia coli MG1655 harboring pColD-lux assessed as maximum induction factor at 10^-6 M after 120 mins by luminometric analysis", "type": "functional, K-12 substr. MG1655"}, "Escherichia coli [26]": {"tested_on": "Escherichia coli", "experiment": "Antibacterial activity against Escherichia coli MG1655 harboring pRecA-lux assessed as maximum induction factor at 10^-3 M after 120 mins by luminometric analysis", "type": "functional, K-12 substr. MG1655"}, "Escherichia coli [27]": {"tested_on": "Escherichia coli", "experiment": "Antibacterial activity against Escherichia coli MG1655 harboring pSoxS-lux assessed as maximum induction factor at 10^-9 M after 120 mins by luminometric analysis", "type": "functional, K-12 substr. MG1655"}, "Vibrio sp. [28]": {"tested_on": "Vibrio sp.", "experiment": "Antibacterial activity against Vibrio aqamarinus VKPM B-11245 assessed as toxicity index at 10^-6 M measured for 2 hrs by luminometric analysis", "type": "functional"}, "Escherichia coli [29]": {"tested_on": "Escherichia coli", "experiment": "Antibacterial activity against Escherichia coli MG1655 harboring pKatG-lux assessed as maximum induction factor at 10^-3 M after 120 mins by luminometric analysis", "type": "functional, K-12 substr. MG1655"}, "Escherichia coli [30]": {"tested_on": "Escherichia coli", "experiment": "Antibacterial activity against Escherichia coli MG1655 harboring pIbpA-lux assessed as maximum induction factor at 10^-14 M after 120 mins by luminometric analysis", "type": "functional, K-12 substr. MG1655"}}}
{"smiles": "O=[N+]([O-])c1cc([N+](=O)[O-])c2no[n+]([O-])c2c1Sc1nc2ccccc2s1", "values": [{"measurement": "Activity", "setting": "Escherichia coli [1]", "result": 0.96}, {"measurement": "Activity", "setting": "Escherichia coli [2]", "result": 1.02}, {"measurement": "Activity", "setting": "[3]", "result": 1.71}, {"measurement": "Activity", "setting": "Escherichia coli [4]", "result": 0.3}, {"measurement": "Activity", "setting": "Escherichia coli [5]", "result": 0.98}, {"measurement": "Activity", "setting": "Vibrio sp. [6]", "result": 3.44}, {"measurement": "Activity", "setting": "Vibrio sp. [7]", "result": 98.83}, {"measurement": "Activity", "setting": "Escherichia coli [8]", "result": 98}, {"measurement": "Activity", "setting": "Escherichia coli [9]", "result": 1.04}, {"measurement": "Activity", "setting": "Escherichia coli [10]", "result": 1.08}, {"measurement": "Activity", "setting": "[11]", "result": 2.87}, {"measurement": "Activity", "setting": "Vibrio sp. [12]", "result": 11.61}, {"measurement": "Activity", "setting": "Escherichia coli [13]", "result": 7.28}, {"measurement": "Activity", "setting": "Escherichia coli [14]", "result": 1.02}, {"measurement": "Activity", "setting": "[15]", "result": 1.64}, {"measurement": "Activity", "setting": "Escherichia coli [16]", "result": 1.01}, {"measurement": "Activity", "setting": "Escherichia coli [17]", "result": 0.93}, {"measurement": "Activity", "setting": "Escherichia coli [18]", "result": 33.59}, {"measurement": "Activity", "setting": "Escherichia coli [19]", "result": 1.01}, {"measurement": "Activity", "setting": "Escherichia coli [20]", "result": 1.07}, {"measurement": "Activity", "setting": "Escherichia coli [21]", "result": 0.84}, {"measurement": "Activity", "setting": "[22]", "result": 1.68}, {"measurement": "Activity", "setting": "Vibrio sp. [23]", "result": 0}, {"measurement": "Activity", "setting": "Escherichia coli [24]", "result": 0}, {"measurement": "Activity", "setting": "Escherichia coli [25]", "result": 1.04}, {"measurement": "Activity", "setting": "Escherichia coli [26]", "result": 0.25}, {"measurement": "Activity", "setting": "Escherichia coli [27]", "result": 1.08}, {"measurement": "Activity", "setting": "Vibrio sp. [28]", "result": 73.17}, {"measurement": "Activity", "setting": "Escherichia coli [29]", "result": 0.18}, {"measurement": "Activity", "setting": "Escherichia coli [30]", "result": 1.46}]}
